Tested on: IL-1β production in PMA-differentiated THP-1 cells
Assay: IL-1β production in PMA-differentiated THP-1 cells stimulated with gramicidin (hTHP-1 assay)
Assay type: cell-based
Conditions: Homo sapiens, gramicidin 5 μM, 2% fetal bovine serum, class symbols
Method: Procedure 1: IL-1β Production in PMA-Differentiated THP-1 Cells Stimulated with Gramicidin.
THP-1 cells were purchased from the American Type Culture Collection and sub-cultured according to instructions from the supplier. Cells were cultured in complete RPMI 1640 (containing 10% heat inactivated FBS, penicillin (100 units/ml) and streptomycin (100 μg/ml)), and maintained in log phase prior to experimental setup. Prior to the experiment, compounds were dissolved in dimethyl sulfoxide (DMSO) to generate a 30 mM stock. The compound stock was first pre-diluted in DMSO to 3, 0.34, 0.042 and 0.0083 mM intermediate concentrations and subsequently spotted using Echo550 liquid handler into an empty 384-well assay plate to achieve desired final concentration (e.g. 100, 33, 11, 3.7, 1.2, 0.41, 0.14, 0.046, 0.015, 0.0051, 0.0017 μM). DMSO was backfilled in the plate to achieve a final DMSO assay concentration of 0.37%. The plate was then sealed and stored at room temperature until required.
THP-1 cells were treated with PMA (Phorbol 12-myristate 13-acetate) (20 ng/ml) for 16-18 hours. On the day of the experiment the media was removed and adherent cells were detached with trypsin for 5 minutes. Cells were then harvested, washed with complete RPMI 1640, spun down, and resuspended in RPMI 1640 (containing 2% heat inactivated FBS, penicillin (100 units/ml) and streptomycin (100 μg/ml). The cells were plated in the 384-well assay plate containing the spotted compounds at a density of 50,000 cells/well (final assay volume 50 μl). Cells were incubated with compounds for 1 hour and then stimulated with gramicidin (5 μM) (Enzo) for 2 hours. Plates were then centrifuged at 340 g for 5 min. Cell free supernatant (40 μL) was collected using a 96-channel PlateMaster (Gilson) and the production of IL-1β was evaluated by HTRF (cisbio). The plates were incubated for 18 h at 4° C. and read using the preset HTRF program (donor emission at 620 nm, acceptor emission at 668 nm) of the SpectraMax i3x spectrophotometer (Molecular Devices, software SoftMax 6). A vehicle only control and a dose titration of CRID3 (100-0.0017 μM) were run concurrently with each experiment. Data was normalized to vehicle-treated samples (equivalent to 0% inhibition) and CRID3 at 100 μM (equivalent to 100% inhibition).
Procedure 2: IL-1β Production in PMA-Differentiated THP-1 Cells Stimulated with Gramicidin.
THP-1 cells were purchased from the American Type Culture Collection and sub-cultured according to instructions from the supplier. Prior to experiments, cells were cultured in complete RPMI 1640 (containing 10% heat inactivated FBS, penicillin (100 units/ml) and streptomycin (100 μg/ml)), and maintained in log phase prior to experimental setup. Prior to the experiment THP-1 were treated with PMA (Phorbol 12-myristate 13-acetate) (20 ng/ml) for 16-18 hours. Compounds were dissolved in dimethyl sulfoxide (DMSO) to generate a 30 mM stock. On the day of the experiment the media was removed and adherent cells were detached with trypsin for 5 minutes. Cells were then harvested, washed with complete RPMI 1640, spun down, resuspended in RPMI 1640 (containing 2% heat inactivated FBS, penicillin (100 units/ml) and streptomycin (100 μg/ml). The cells were plated in a 384-well plate at a density of 50,000 cells/well (final assay volume 50 μl). Compounds were first dissolved in assay medium to obtain a 5× top concentration of 500 μM. 10 step dilutions (1:3) were then undertaken in assay medium containing 1.67% DMSO. 5× compound solutions were added to the culture medium to achieve desired final concentration (e.g. 100, 33, 11, 3.7, 1.2, 0.41, 0.14, 0.046, 0.015, 0.0051, 0.0017 μM). Final DMSO concentration was at 0.37%. Cells were incubated with compounds for 1 hour and then stimulated with gramicidin (5 μM) (Enzo) for 2 hours. Plates were then centrifuged at 340 g for 5 min. […]
Compound `CC(C)c1cc(-c2ccc3c(c2)COCC3)cc(C(C)C)c1CC(=O)NS(=O)(=O)c1sc(C(C)(C)O)nc1CO` [Compound 101] has an IC50 of 1000 to 5000 nM. In the case of `CC(C)c1cc2c(c(C(C)C)c1CC(=O)NS(=O)(=O)c1sc(C(C)(C)O)nc1CO)COC2` [Compound 102], the IC50 is reported as 1000 to 5000 nM. `COc1cc(S(=O)(=O)NCCCO)ccc1S(=O)(=O)NC(=O)Cc1c(C(C)C)cc(C#N)c(F)c1C(C)C` [Compound 103] showed an IC50 of 1000 to 5000 nM. For `CC(C)c1ccc(C#N)c(C(C)C)c1CC(=O)NS(=O)(=O)c1sc(C(C)(C)O)nc1CO` [Compound 104], the IC50 was 5000 to 30000 nM. Compound `CC(C)c1c(F)c(C#N)cc(C2CC2)c1CC(=O)NS(=O)(=O)c1sc(C(C)(C)O)nc1CO` [Compound 105] has an IC50 of 1000 to 5000 nM. `COc1cc(S(=O)(=O)NCCO)ccc1S(=O)(=O)NC(=O)Cc1c(C(C)C)cc(C#N)c(F)c1C(C)C` [Compound 106] gave an IC50 of 5000 to 30000 nM. Work on `CNS(=O)(=O)c1ccc(S(=O)(=O)NC(=O)Cc2c(C(C)C)cc(C#N)c(F)c2C(C)C)c(O)c1` [Compound 107] yielded an IC50 of 200 to 1000 nM. Compound `CC(C)c1cc(C#N)c(F)c(C(C)C)c1CC(=O)NS(=O)(=O)c1sc(C(C)(C)O)nc1CCO` [Compound 108] has an IC50 of 200 to 1000 nM. `CC(C)c1cncc(C(C)C)c1CC(=O)NS(=O)(=O)c1sc(C(C)(C)O)nc1CO` [Compound 109] gave an IC50 of 5000 to 30000 nM. Work on `CNS(=O)(=O)c1ccc(S(=O)(=O)NC(=O)Cc2c(C(C)C)cc(C#N)c(F)c2C(C)C)c(C(N)=O)c1` [Compound 111] yielded an IC50 of 5000 to 30000 nM. `CNS(=O)(=O)c1ccc(S(=O)(=O)NC(=O)Cc2c(C(C)C)cc(COC)cc2C(C)C)c(CO)c1` [Compound 116] gave an IC50 of 1000 to 5000 nM. `CNS(=O)(=O)c1ccc(S(=O)(=O)NC(=O)Cc2c(C(C)C)cc(C#N)c(F)c2C(C)C)c(OC)c1` [Compound 117] gave an IC50 of 200 to 1000 nM. `COCc1cc(C(C)C)c(CC(=O)NS(=O)(=O)c2sc(C(C)(C)O)nc2CO)c(C(C)C)c1` [Compound 118] gave an IC50 of 1000 to 5000 nM. With `CCC(C)c1cc(C#N)cc(C(C)C)c1CC(=O)NS(=O)(=O)c1sc(C(C)(C)O)nc1CO` (stereo not drawn) [Compound 119] the IC50 was 200 to 1000 nM. Work on `CNS(=O)(=O)c1ccc(S(=O)(=O)NC(=O)Cc2c(C(C)C)cc(C#N)c(F)c2C(C)C)c(C(=O)OC)c1` [Compound 120] yielded an IC50 of 5000 to 30000 nM. With `CC(C)Cc1cc(C#N)cc(C(C)C)c1CC(=O)NS(=O)(=O)c1sc(C(C)(C)O)nc1CO` [Compound 122] the IC50 was 1000 to 5000 nM. Compound `Cc1cc(C(C)(C)O)c(CO)cc1S(=O)(=O)NC(=O)Cc1c(C(C)C)cc(C#N)cc1C(C)C` [Compound 123] has an IC50 of 5000 to 30000 nM. `CC(C)c1cc(C#N)c(F)c(C(C)C)c1CC(=O)NS(=O)(=O)c1cc(CO)c(C(C)(C)O)cc1F` [Compound 125] gave an IC50 of 1000 to 5000 nM. `CNS(=O)(=O)c1ccc(S(=O)(=O)NC(=O)Cc2c(C(C)C)cc(C#N)c(F)c2C(C)C)c(CO)c1` [Compound 127] showed an IC50 of 200 to 1000 nM. With `CNS(=O)(=O)c1ccc(S(=O)(=O)NC(=O)Cc2c(C(C)C)cc(C#N)c(F)c2C(C)C)cc1CO` [Compound 128] the IC50 was 200 to 1000 nM. Compound `CNS(=O)(=O)c1cc(CO)cc(S(=O)(=O)NC(=O)Cc2c(C(C)C)cc(C#N)c(F)c2C(C)C)c1` [Compound 129] has an IC50 of 1000 to 5000 nM. `CC(C)c1cc(C#N)cc(C(C)C)c1CC(=O)NS(=O)(=O)c1cc(CO)c(C(C)(C)O)cc1F` [Compound 130] gave an IC50 of 1000 to 5000 nM. For `CC(C)c1cc(C#N)c(F)c(C(C)C)c1CC(=O)NS(=O)(=O)c1ccc(S(N)(=O)=O)c(CO)c1` [Compound 131], the IC50 was 1000 to 5000 nM. With `CNC(=O)c1cc(S(=O)(=O)NC(=O)Cc2c(C(C)C)cc(C#N)c(F)c2C(C)C)ccc1S(=O)(=O)NC` [Compound 132] the IC50 was 5000 to 30000 nM. For `CC(C)c1cc(C#N)c(F)c(C(C)C)c1CC(=O)NS(=O)(=O)c1ccc(CN(C)C)c(CO)c1` [Compound 133], the IC50 was 1000 to 5000 nM. With `CC(C)c1cc(C#N)cc(C(C)C)c1CC(=O)NS(=O)(=O)c1sc(C(C)(C)O)nc1CO` [Compound 134] the IC50 was 1000 to 5000 nM. `CC(C)c1c(F)c(C#N)c(F)c(C(C)C)c1CC(=O)NS(=O)(=O)c1sc(C(C)(C)O)nc1CO` [Compound 135] showed an IC50 of 200 to 1000 nM. Compound `CC(C)c1cc(C#N)c(F)c(C(C)C)c1CC(=O)NS(=O)(=O)c1sc(C(C)(C)O)nc1CO` [Compound 136] has an IC50 of 200 to 1000 nM. In the case of `CC(C)c1cc(C#N)cc(C(C)C)c1CC(=O)NS(=O)(=O)c1ccc(CN(C)C)c(CO)c1` [Compound 137], the IC50 is reported as 5000 to 30000 nM. Compound `CC(C)c1cc(C#N)c(F)c(C(C)C)c1CC(=O)NS(=O)(=O)c1ccc(C(C)(C)O)c(CO)c1` [Compound 138] has an IC50 of 1000 to 5000 nM. Compound `CNS(=O)(=O)c1ccc(S(=O)(=O)NC(=O)Cc2c(C(C)C)cc(COC3CCCC3)cc2C(C)C)c(CO)c1` [Compound 140] has an IC50 of 40 to 200 nM. `CC(C)c1cc(-c2ccc3c(c2)OC(F)(F)O3)cc(C(C)C)c1CC(=O)NS(=O)(=O)c1sc(C(C)(C)O)nc1CO` [Compound 142] showed an IC50 of 8 to 40 nM.

Same assay, conditions: Homo sapiens, gramicidin 5 μM, 2% fetal bovine serum, given as numeric bound
For `CNS(=O)(=O)c1ccc(S(=O)(=O)NC(=O)Cc2c(C(C)C)cc(C#N)c(F)c2C(C)C)c(C(=O)N(C)C)c1` [Compound 112], the IC50 was > 100000 nM. For `CNS(=O)(=O)c1ccc(S(=O)(=O)NC(=O)Cc2c(C(C)C)cc(C#N)c(F)c2C(C)C)c(C(=O)O)c1` [Compound 114], the IC50 was > 100000 nM. For `CC(C)c1cc(C#N)c(F)c(C(C)C)c1CC(=O)NS(=O)(=O)c1ccc(S(=O)(=O)NC(C)(C)C)cc1CO` [Compound 124], the IC50 was > 100000 nM. With `CC(C)c1cc(C#N)c(F)c(C(C)C)c1CC(=O)NS(=O)(=O)c1ccc(S(N)(=O)=O)cc1CO` [Compound 126] the IC50 was > 100000 nM.

Tested on: not listed separately
Assay: Colon pharmacokinetics in mice
Assay type: in vivo
Conditions: 30 mg/kg oral gavage in 0.5% methyl-cellulose in water, male C57BL/6 mouse, colon conc. to plasma conc. ratio at 8 h; read-out: Mouse TD Colon/Plasma @ 8 h
Method: Assay 2: Colon Pharmacokinetics in Mice
The test compound was formulated in 0.5% methyl-cellulose in water and dosed via oral gavage at 30 mg/kg to Male C57BL/6 Mouse. At various time points (typically 15 min, 30 min, 1, 2, 4, 6 and 8 h) post dosing, blood samples were removed via cardiac […] puncture and intact colons were excised from the […]. Blood samples were centrifuged at 1500×g for 15 min to collect plasma. At the terminal time point each individual animal is anaesthetized, abdominal cavity is opened and from 2 cm below the caecum a 4 cm sample of the colon is dissected, cut open on the longitudinal axis and the solid contents removed by flushing with 2 mL of physiological fluid. The colon was further washed by putting it in 5 mL of physiological saline and shaken for 1 minute. The colon was pet dry weighed and transferred in 2 mL tubes. Colon will be weighted and homogenized with water by tissue weight (g) to water volume (mL) at ratio 1:3 before analysis. The actual concentration is the detected value multiplied by the dilution factor. A colon to plasma ratio was determined as the ratio of the colon conc. to the plasma conc. in pg hr/g. at 8 h time point.
`CNS(=O)(=O)c1ccc(S(=O)(=O)NC(=O)Cc2c(C(C)C)cc(C#N)c(F)c2C(C)C)c(OC)c1` [Compound 117] showed a Kp at 8 h of 3380. Work on `CCC(C)c1cc(C#N)cc(C(C)C)c1CC(=O)NS(=O)(=O)c1sc(C(C)(C)O)nc1CO` (stereo not drawn) [Compound 119] yielded a Kp at 8 h of 6720. In the case of `CC(C)Cc1cc(C#N)cc(C(C)C)c1CC(=O)NS(=O)(=O)c1sc(C(C)(C)O)nc1CO` [Compound 122], the Kp at 8 h is reported as 1480. Compound `CNS(=O)(=O)c1ccc(S(=O)(=O)NC(=O)Cc2c(C(C)C)cc(C#N)c(F)c2C(C)C)c(CO)c1` [Compound 127] has a Kp at 8 h of 197. In the case of `CNS(=O)(=O)c1ccc(S(=O)(=O)NC(=O)Cc2c(C(C)C)cc(C#N)c(F)c2C(C)C)cc1CO` [Compound 128], the Kp at 8 h is reported as 1180. Work on `CNS(=O)(=O)c1ccc(S(=O)(=O)NC(=O)Cc2c(C(C)C)cc(COC3CCCC3)cc2C(C)C)c(CO)c1` [Compound 140] yielded a Kp at 8 h of 558.

Reference: patent US20210395241A1, “NLRP MODULATORS” (Novartis AG, priority 2018, published 2021)
